Test results published in patent EP4667500A1, “FRUCTOOLIGOSACCHARIDE DERIVATIVES AND USES THEREOF” (Biopract GmbH, priority 2024, dated 2025).

Tested on: pancreatic enzymes
Test: Stability in simulated small intestine (pancreatic hydrolysis), released substituent acid detected by HPLC
Type: in vitro ADME
Conditions: incubation in simulated intestinal environment
Excerpt: The compounds analysed are esters between primary or secondary alcohols and fatty acids. In the stomach, the influence of the pH value and its chemical effect is decisive. The stability of the molecules there depends mainly on the nature of the bond. This is the same for all the molecules analysed. […] In contrast, hydrolysis in the small intestine is enzymatically catalysed and the stability can vary greatly between the molecules studied. The work on stability was therefore focussed on pancreatic hydrolysis.
The synthesised ester compounds consisted of a fructooligosaccharide scaffold of the inulin or levan type, to which substituent molecules were bound via an ester bond. Organic acids, predominantly butyric acid, and also propionic acid, acetic acid, succinic acid and benzoic acid served as substituents. The study consisted of incubating the substances in a simulated intestinal environment, followed by the detection of the substituent acid present and, if applicable, released by means of HPLC. Tributyrin was used as a positive control according to the literature.

In the case of `CCCC(=O)OCC(COC(=O)CCC)OC(=O)CCC` [Tributyrin], the “stability under the test conditions of the simulated small intestine” value is reported as “largely hydrolysed”.
